The subject of one data set is 5×FAD mice. Kind of data set: Memory performance (novel object preference) in 5×FAD mice. In kind it is in vivo. How it is done: FIG. 7. […] Preliminary results obtained in 11 month old mice treated with NU-9 for 4 weeks. Memory performance was evaluated before and after treatment with vehicle or NU-9.
In a preliminary experiment using a mouse model of Alzheimer's disease, NU-9 protected against memory loss. Twelve 5×FAD mice were bred on the slow-onset background. These animals received either vehicle control or NU-9 by gavage (20 mg/kg) daily for one month. In the control group, all animals failed the memory task, showing no preference for the novel object. […] (FIG. 7).

For data set [1], the target named is cathepsin B (Homo sapiens, UniProt P07858). Kind of data set: Purified cathepsin B enzyme activity (Z-RR-AMC to 7-AMC). In kind it is biochemical. The note with it: NU-9 0.0003-30 μM. As for the experimental part: FIG. 28. A) 0.0003-30 μM NU-9 was combined with purified cathepsin B enzyme in the presence of the cathepsin B substrate Z-RR-AMC. Cathepsin B enzyme activity was measured by the rate of 7-AMC production by fluorescence. Percent change in rate with NU-9 was quantified in the graph. […] B) Mature hippocampal neurons were treated with NU-9 for 30 minutes, then Magic Red was used to monitor intracellular cathepsin L activity. Cells were treated in 3 wells.

The subject of another data set is AβOs bound to neurons. Description: AβOs bound to dendrites of hippocampal neurons treated with Aβ42 monomer (immunofluorescence, NU2/NU4). In kind it is cell-based, rat. How it is done:
Neurons were pre-treated with 3 μM NU-9 for 30 min, then treated with Aβ42 monomer for 24 hr. Cells were fixed with 3.7% formaldehyde and stained for AβOs (NU4, green), tau phosphorylated at Ser396 (pSer396, red) and mounted on slides before imaging.
Cells were fixed with 3.7% formaldehyde and stained for AβOs (NU4, green), tau phosphorylated at Thr205 (pThr205, red), and nuclei (DAPI, blue) and mounted on slides before imaging.
FIG. 3. Neurons were pre-treated with 3 μM NU-9 for 30 min, then treated with Aβ42 monomer for 30 min. Cells were fixed with 3.7% formaldehyde and stained for AβOs (NU2, green), β-II tubulin (TUBB3, red), and nuclei (DAPI, blue) and mounted on slides before imaging.
FIG. 4. E18 hippocampal neurons were cultured until 21 div and pre-treated with 3, 15, or 30 μM NU-9 for 30 minutes, followed by treatment with 500 nM Aβ42 for 30 minutes. Cells were fixed with 3.7% formaldehyde and stained for AβOs (NU2, green), […] (red) and nuclei (DAPI, blue), and mounted on slides before imaging at 63×.
NU-9 reduces the number of amyloid beta oligomers bound to neurites. Primary rat hippocampal neurons in cell culture were pre-treated with NU-9 for 30 minutes and then treated with amyloid beta 1-42 (Aβ) monomer. […] To characterize the dose-response effect of NU-9 on AβO formation, cells were pretreated with increasing doses of NU-9 (3, 15, and 30 μM), and then treated with Aβ for 30 minutes.
The decrease was 81% (p=0.0005). We further characterized the effect of NU-9, to narrow down potential candidate mechanisms for this effect.

Another data set deals with acidic lysosomes. Kind of data set: Lysotracker labelling of acidic compartments in hippocampal neurons. The settings on record: 3 μM NU-9, 30-minute treatment. In kind it is cell-based, rat. How it is done:
FIG. 24. Mature E18 hippocampal neurons were treated 3 μM NU-9, and subsequently labelled with lysotracker. A) total immunofluorescence (integrated density), B) mean intensity, C) average size of acidic compartments, D) number of acidic compartments.

Data set [2] has as its target T1, cathepsin B (Rattus norvegicus, UniProt P00787).
T1 construct: endogenous in cells
Kind of data set: Cathepsin B activity in hippocampal neurons (cell-based, Magic Red). The settings on record: neurons treated with NU-9 30 minutes.

Data set [3] concerns the target T2, intracellular cathepsin L activity (Rattus norvegicus, UniProt P07154).
T2 construct: endogenous in cells
Description: Intracellular cathepsin L activity in hippocampal neurons (Magic Red). In kind it is cell-based. The settings on record: hippocampal neurons treated with NU-9 30 minutes. As for the experimental part: FIG. 26. A) 0.0003-150 μM NU-9 was combined with purified cathepsin L enzyme in the presence of the cathepsin L substrate Z-FR-AMC. Cathepsin L enzyme activity was measured by the rate of 7-AMC production by fluorescence. Percent change in rate was quantified in the graph. […] B) Mature hippocampal neurons were treated with NU-9 for 30 minutes, then Magic Red was used to monitor intracellular cathepsin L activity. Cells were treated in 3 wells, and 9-22 images were analyzed per condition.
No effect of 0.0003-150 μM NU-9 was observed on the cathepsin L activity as measured by the production rate of 7-AMC from Z-FR-AMC by purified cathepsin L enzyme.

“And” between values parts separate entries of the source, which are not always exact repeats. Equal values may be shown once. “Also recorded” adds a separate entry of the source.

The text below walks through data of patent publication US20240325319A1, “INHIBITORS OF AMYLOID BETA OLIGOMERIZATION AND THERAPEUTIC USES THEREOF” (Northwestern University, priority 2021, published 2024).

T2 sequence (P07154 114-334): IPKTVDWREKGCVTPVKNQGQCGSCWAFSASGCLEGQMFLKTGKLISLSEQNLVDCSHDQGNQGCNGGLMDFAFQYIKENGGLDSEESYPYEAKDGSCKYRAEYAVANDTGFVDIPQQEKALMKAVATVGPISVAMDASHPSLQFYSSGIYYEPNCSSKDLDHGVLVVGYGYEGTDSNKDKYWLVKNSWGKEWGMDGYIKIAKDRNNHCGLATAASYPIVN
T1 sequence (P00787 80-126 limits assumed): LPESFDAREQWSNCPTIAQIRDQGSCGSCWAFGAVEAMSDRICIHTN
T1 sequence (P00787 129-333 limits assumed): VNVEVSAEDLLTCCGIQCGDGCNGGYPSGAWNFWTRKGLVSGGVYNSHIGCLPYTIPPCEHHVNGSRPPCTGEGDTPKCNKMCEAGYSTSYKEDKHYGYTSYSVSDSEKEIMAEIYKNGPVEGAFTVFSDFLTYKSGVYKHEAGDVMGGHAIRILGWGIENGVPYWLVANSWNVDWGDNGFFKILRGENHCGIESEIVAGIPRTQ

Consider `C[C@H](Oc1cc(C(F)(F)F)cc(C(F)(F)F)c1)C1CC(=O)CC(=O)C1` [NU-9, (S)-5-(1-(3,5-bis(trifluoromethyl)phenoxy)ethyl)cyclohexane-1,3-dione], for which the “motor and exploratory behavior” value in the data set on 5×FAD mice (5×FAD mice treated with vehicle or NU-9 for 4 weeks) was “normal motor and exploratory behavior”. Also, the “protection against memory loss (preference for novel object)” value with 5×FAD mice (5×FAD mice, 11 month old, 20 mg/kg by gavage daily for one month, preliminary, 20 mg/kg) is on record as “mitigated memory loss; also recorded: three of the four mice were protected from memory loss; also recorded: mitigates memory loss in older 5×FAD mice”. For the same compound, the “cathepsin B activity (cleavage of Z-RR-AMC to 7-AMC)” value on cathepsin B [1] is “Minimal effect”. Moreover, in the data set on AβOs bound to neurons (3 μM NU-9 pre-treatment 30 min, then Aβ42 monomer 24-26 hr), the “number of AβOs bound at dendrites” value was “significantly decreased the number of AβOs bound at dendrites; also recorded: able to reduce AβO binding in neurons treated with Aβ monomer”. For the same compound, the “AβOs bound to neurons / formation of neuron-binding AβOs” value in the data set on AβOs bound to neurons (3 μM NU-9 pre-treatment 30 min, then Aβ monomer 500 nM, 30 min) is on record as “mitigated the formation of neuron-binding AβOs; also recorded: significantly reduced AβOs bound to neurons; also recorded: significantly reduced the formation of neuron binding AβOs”. Besides, the “dose-response of AβO suppression (visual analysis of images)” value with AβOs bound to neurons (3, 15, or 30 μM NU-9 30 min, then 500 nM Aβ42 30 min) is “reduced more extensively at higher doses of NU-9; also recorded: More extensive suppression of AβOs was observed at higher concentrations of NU-9”. The “reduction in AβOs at synapses compared to treatment with Aβ monomer alone” value in the data set on AβOs bound to neurons (NU-9 3 μM, 30 min prior to Aβ monomer 500 nM, 30 min or 24 h) is 81% and 55-80%. In addition, the “number of AβOs bound to neurons” value with AβOs bound to neurons (NU-9 30 min pre-treatment, Aβ monomer 30 min or 24 h) is listed as “reduces the number of bound amyloid beta oligomers; also recorded: dramatically decreased the number of Aβ oligomers (AβOs) bound to neurons; also recorded: marked reduction in AβOs at synapses; also recorded: effectively reduced the number of pathological species of AβOs”. Further, the “lysosome number, size, and acidity” value in the data set with acidic lysosomes is recorded as “unchanged”. For the same compound, on cathepsin B [2], the “cathepsin B activity in hippocampal neurons” value is on record as “not observed to alter cathepsin B activity”. The “intracellular cathepsin L activity” value in data set [3] was “not observed to modulate intracellular cathepsin L activity”.
